This experiment has as its system polymerase. Kind of experiment: Amplification plots and Cq of gene targets, Dt4 compared with Tween 20 and Brij-58. The experiment is classed as biochemical. As to conditions: B2M, GAPDH, RPLPO; FIGS. 16-18. An excerpt: All amplification plots shown herein graphically represent target nucleic acid amplification as ΔRn (y-axis) as a function of cycle number (x-axis).
FIGS. 7A through 7D and FIGS. 8A through 8D provide a comparison between Dt4 and Tween® 20 in amplifying four different targets (B2M, GAPDH, RPLPO, and GUSB).
FIG. 9 provides a comparison between Dt4 and Tween® 20 in amplifying various different targets.
FIGS. 11A and 11B, FIGS. 12A and 12B, FIGS. 13A and 13B, FIGS. 14A and 14B, FIGS. 15A and 15B show amplification plots comparing the activity of Dt4 to Brij-58 and Tween® 20 at various concentrations in amplifying HPRT1 or PPIA.
FIGS. 16-18 illustrate that Dt4 may be used at a lower concentration than Tween® 20 in various reactions (e.g., 0.002% Dt4 compared to 0.01% Tween® 20).

1 substance from US11479814B2, “Compounds for use in PCR systems and applications thereof” (LIFE TECHNOLOGIES CORPORATION, priority 2013, dated 2022) can be followed below.

In the case of Tween® 20, the “concentration used in amplification reactions” value turned out to be 0.01%.
